Assay results taken from patent publication US10919882B2, “Compounds for use in synthesis of peptidomimetics” (THE FEINSTEIN INSTITUTES FOR MEDICAL RESEARCH, priority 2019, dated 2021).

Experiment: Stability of HOBt aza building blocks with Boc, Fmoc or Phth alpha-amino protection
Assay type: physicochemical
Source text: Assessing the Compatibility of HOBt Aza Building Blocks in the Presence of Traditional Alpha Amino Protecting Groups (e.g. Phth, Fmoc and Boc) with Other Protecting Synthesis and Stability
The issues with stability were observed when the N-1 is protected with R=Boc or Fmoc and R′═H. This is due to the presence of NH that leads to undesirable intramolecular cyclization and formation oxadiazoles (Future Med. Chem. (2011) 3(9), 1139-1164) Org. Biomol. Chem., 2015, 13, 59-63. Boc and Fmoc form an unwanted side reaction of carboxyanhydride in peptide synthesis with acid halogenation reagent (Acc. Chem. Res. 1996, 29, 268-274; J. Am. Chem. Soc. 1996, 118, 9796-9797) and in azapeptide synthesis with hydrazine component, the oxadiazalone will be formed (Journal of Peptide Science 2013, 19, 725-729).

## O=C(On1nnc2ccccc21)N(Cc1ccccc1)N1C(=O)c2ccccc2C1=O
In solution / organic solvents, room temperature
  Isolated Yield and Stability (in solution): Stable in organic solvents such as acetone, dichloromethane, acetonitrile, DMF at room temperature for weeks
Isolated product as solid
  Isolated Yield and Stability (solid form): Stable white solid
